Results as given in ChEMBL document CHEMBL5715956, “Selective Targeting of Bromodomains of the Bromodomain-PHD Fingers Family Impairs Osteoclast Differentiation” (ACS Chem Biol, 2017).

Key:
[1] = target: Bromodomain-containing protein 4 (Homo sapiens) (UniProt O60885); conditions: dose 10.0 µM
[2] = target: Bromodomain-containing protein 4 (Homo sapiens) (UniProt O60885); assay: Binding affinity to BRD4 BD1 (unknown origin) assessed as change in entropy at 14 uM by Isothermal titration calorimetry
[3] = target: Chromatin remodeling regulator CECR2 (Homo sapiens) (UniProt Q9BXF3); conditions: dose 10.0 µM
[4] = target: Bromodomain and WD repeat-containing protein 3 (Homo sapiens) (UniProt Q6RI45); conditions: dose 10.0 µM
[5] = target: Transcription initiation factor TFIID subunit 1-like (Homo sapiens) (UniProt Q8IZX4); conditions: dose 10.0 µM
Peregrin (Homo sapiens) = target: T1, Peregrin (Homo sapiens) (UniProt P55201); assay: Binding affinity to […] (unknown origin) assessed as change in entropy TdeltaS at 17 uM by Isothermal titration calorimetry
T1 sequence (whole entry): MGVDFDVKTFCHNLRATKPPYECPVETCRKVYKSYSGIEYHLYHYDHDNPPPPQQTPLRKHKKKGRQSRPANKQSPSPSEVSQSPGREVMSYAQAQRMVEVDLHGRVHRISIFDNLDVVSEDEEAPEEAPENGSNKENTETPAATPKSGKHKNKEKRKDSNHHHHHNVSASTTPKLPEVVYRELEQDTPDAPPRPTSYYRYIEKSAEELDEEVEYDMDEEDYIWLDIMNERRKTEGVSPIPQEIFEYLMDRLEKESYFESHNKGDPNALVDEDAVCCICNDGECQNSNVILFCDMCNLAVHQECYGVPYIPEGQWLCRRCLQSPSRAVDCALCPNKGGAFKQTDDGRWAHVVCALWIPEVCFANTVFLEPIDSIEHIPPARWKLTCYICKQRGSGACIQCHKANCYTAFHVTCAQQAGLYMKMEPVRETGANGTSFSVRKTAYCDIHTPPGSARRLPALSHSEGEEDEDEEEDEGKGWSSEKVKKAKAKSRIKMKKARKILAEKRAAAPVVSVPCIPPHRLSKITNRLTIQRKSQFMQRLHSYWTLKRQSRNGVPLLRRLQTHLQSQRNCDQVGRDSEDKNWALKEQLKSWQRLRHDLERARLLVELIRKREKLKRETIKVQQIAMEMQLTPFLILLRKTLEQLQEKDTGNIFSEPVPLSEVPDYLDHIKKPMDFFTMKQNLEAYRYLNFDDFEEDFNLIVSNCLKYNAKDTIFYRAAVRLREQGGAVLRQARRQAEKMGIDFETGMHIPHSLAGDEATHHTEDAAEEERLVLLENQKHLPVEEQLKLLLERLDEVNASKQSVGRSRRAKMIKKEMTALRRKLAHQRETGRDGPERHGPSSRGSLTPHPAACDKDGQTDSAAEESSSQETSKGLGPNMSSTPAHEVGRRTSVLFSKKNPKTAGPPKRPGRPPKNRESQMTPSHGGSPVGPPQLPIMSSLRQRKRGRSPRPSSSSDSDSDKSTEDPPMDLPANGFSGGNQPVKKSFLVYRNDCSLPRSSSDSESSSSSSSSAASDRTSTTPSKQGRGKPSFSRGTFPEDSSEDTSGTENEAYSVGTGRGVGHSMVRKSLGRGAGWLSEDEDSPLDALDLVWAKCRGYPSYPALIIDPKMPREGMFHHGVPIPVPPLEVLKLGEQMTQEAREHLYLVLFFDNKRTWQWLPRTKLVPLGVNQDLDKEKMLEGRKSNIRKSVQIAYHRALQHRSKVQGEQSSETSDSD

[6] = target: Transcription initiation factor TFIID subunit 1 (Homo sapiens) (UniProt P21675); conditions: dose 10.0 µM
[7] = target: Bromodomain-containing protein 4 (Homo sapiens) (UniProt O60885); conditions: dose 10.0 µM; remark: listed apart in the source
[8] = target: Beta-1 adrenergic receptor (Homo sapiens) (UniProt P08588); assay: Inhibition of Beta1 (unknown origin) at 10 uM relative to control
[9] = target: ATPase family AAA domain-containing protein 2B (Homo sapiens) (UniProt Q9ULI0); conditions: dose 10.0 µM
[10] = target: Transcription initiation factor TFIID subunit 1 (Homo sapiens) (UniProt P21675); conditions: dose 10.0 µM; remark: listed apart in the source
[11] = target: Bromodomain-containing protein 7 (Homo sapiens) (UniProt Q9NPI1); conditions: dose 10.0 µM
Sequence of Bromodomain-containing protein 7 (Homo sapiens) (Q9NPI1 whole entry): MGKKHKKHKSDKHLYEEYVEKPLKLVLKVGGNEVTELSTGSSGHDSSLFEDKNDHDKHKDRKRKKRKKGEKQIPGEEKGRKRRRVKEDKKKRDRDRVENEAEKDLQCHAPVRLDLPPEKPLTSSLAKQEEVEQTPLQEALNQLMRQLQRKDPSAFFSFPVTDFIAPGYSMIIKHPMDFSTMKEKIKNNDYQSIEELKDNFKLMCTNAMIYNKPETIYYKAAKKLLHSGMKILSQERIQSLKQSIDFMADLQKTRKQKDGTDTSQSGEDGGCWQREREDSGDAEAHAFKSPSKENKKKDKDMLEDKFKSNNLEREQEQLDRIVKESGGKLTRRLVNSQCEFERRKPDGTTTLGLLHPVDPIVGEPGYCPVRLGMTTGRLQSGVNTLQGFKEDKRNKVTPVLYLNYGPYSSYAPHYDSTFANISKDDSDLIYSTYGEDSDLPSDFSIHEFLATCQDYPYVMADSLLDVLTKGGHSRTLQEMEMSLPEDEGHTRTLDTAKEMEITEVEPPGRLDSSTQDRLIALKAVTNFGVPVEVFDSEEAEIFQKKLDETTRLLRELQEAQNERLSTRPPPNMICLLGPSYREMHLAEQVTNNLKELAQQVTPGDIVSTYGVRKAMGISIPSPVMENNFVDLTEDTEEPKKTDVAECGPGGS

Sequence of Transcription initiation factor TFIID subunit 1 (Homo sapiens) (P21675 whole entry): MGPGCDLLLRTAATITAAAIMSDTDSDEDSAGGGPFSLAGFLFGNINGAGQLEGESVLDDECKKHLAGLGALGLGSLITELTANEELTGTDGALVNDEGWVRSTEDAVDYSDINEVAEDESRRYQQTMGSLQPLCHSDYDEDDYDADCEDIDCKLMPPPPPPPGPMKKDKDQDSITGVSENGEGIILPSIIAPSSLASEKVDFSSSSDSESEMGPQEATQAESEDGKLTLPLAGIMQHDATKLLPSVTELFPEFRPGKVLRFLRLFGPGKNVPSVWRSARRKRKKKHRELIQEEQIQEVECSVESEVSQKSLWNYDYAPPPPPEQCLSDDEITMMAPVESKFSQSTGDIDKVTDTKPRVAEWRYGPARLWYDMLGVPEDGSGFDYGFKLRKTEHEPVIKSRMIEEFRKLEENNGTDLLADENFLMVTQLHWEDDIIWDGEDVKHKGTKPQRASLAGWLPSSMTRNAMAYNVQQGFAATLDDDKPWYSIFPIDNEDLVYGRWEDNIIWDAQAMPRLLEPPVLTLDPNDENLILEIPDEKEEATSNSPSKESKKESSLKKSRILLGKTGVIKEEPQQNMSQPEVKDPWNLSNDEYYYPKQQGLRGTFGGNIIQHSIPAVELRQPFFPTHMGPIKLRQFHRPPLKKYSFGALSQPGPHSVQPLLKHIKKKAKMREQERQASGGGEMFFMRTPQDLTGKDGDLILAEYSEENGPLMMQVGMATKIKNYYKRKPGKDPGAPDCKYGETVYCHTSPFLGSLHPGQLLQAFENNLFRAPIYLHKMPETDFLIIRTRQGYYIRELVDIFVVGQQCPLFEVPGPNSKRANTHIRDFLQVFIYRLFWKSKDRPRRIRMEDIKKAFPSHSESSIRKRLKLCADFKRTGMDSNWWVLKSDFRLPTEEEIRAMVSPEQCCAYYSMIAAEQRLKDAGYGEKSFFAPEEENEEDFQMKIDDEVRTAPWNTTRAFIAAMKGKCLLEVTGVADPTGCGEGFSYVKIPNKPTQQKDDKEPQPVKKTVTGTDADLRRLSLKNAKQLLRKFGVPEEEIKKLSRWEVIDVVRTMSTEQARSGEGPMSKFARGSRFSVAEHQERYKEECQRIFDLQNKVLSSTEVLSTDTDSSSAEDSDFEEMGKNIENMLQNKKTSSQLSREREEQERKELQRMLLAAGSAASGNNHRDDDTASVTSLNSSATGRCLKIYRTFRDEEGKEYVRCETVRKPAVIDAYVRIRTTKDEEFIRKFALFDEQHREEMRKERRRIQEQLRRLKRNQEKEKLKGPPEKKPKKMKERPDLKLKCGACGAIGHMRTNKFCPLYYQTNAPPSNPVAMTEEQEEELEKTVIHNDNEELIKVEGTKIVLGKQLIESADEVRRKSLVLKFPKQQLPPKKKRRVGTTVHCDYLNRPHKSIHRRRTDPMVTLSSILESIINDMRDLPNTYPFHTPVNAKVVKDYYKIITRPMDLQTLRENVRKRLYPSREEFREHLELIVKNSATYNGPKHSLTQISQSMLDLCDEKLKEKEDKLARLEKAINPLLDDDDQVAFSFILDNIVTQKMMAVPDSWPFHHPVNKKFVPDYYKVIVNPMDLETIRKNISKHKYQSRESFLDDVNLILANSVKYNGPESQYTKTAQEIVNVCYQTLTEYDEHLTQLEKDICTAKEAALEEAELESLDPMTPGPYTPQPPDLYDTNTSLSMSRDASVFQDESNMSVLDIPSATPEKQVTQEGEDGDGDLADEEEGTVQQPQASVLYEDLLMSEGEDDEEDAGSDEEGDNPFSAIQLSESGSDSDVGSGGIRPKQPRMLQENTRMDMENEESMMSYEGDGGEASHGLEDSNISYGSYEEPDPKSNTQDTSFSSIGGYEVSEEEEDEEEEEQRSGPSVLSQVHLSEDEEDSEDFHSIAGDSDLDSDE
Sequence of Beta-1 adrenergic receptor (Homo sapiens) (P08588 whole entry, looked up, the tested form may be a part): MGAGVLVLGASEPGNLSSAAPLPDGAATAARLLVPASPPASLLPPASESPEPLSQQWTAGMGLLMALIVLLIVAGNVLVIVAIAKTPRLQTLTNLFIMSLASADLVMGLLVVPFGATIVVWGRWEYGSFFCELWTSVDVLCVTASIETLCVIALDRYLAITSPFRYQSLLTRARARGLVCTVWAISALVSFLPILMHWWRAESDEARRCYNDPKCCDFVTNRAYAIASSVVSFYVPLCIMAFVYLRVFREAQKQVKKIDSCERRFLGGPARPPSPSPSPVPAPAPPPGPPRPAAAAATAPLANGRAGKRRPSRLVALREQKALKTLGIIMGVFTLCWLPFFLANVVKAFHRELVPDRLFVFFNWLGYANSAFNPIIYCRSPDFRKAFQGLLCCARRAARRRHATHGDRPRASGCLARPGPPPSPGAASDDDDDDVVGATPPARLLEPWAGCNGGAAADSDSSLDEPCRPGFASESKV
Sequence of Bromodomain and WD repeat-containing protein 3 (Homo sapiens) (Q6RI45 whole entry): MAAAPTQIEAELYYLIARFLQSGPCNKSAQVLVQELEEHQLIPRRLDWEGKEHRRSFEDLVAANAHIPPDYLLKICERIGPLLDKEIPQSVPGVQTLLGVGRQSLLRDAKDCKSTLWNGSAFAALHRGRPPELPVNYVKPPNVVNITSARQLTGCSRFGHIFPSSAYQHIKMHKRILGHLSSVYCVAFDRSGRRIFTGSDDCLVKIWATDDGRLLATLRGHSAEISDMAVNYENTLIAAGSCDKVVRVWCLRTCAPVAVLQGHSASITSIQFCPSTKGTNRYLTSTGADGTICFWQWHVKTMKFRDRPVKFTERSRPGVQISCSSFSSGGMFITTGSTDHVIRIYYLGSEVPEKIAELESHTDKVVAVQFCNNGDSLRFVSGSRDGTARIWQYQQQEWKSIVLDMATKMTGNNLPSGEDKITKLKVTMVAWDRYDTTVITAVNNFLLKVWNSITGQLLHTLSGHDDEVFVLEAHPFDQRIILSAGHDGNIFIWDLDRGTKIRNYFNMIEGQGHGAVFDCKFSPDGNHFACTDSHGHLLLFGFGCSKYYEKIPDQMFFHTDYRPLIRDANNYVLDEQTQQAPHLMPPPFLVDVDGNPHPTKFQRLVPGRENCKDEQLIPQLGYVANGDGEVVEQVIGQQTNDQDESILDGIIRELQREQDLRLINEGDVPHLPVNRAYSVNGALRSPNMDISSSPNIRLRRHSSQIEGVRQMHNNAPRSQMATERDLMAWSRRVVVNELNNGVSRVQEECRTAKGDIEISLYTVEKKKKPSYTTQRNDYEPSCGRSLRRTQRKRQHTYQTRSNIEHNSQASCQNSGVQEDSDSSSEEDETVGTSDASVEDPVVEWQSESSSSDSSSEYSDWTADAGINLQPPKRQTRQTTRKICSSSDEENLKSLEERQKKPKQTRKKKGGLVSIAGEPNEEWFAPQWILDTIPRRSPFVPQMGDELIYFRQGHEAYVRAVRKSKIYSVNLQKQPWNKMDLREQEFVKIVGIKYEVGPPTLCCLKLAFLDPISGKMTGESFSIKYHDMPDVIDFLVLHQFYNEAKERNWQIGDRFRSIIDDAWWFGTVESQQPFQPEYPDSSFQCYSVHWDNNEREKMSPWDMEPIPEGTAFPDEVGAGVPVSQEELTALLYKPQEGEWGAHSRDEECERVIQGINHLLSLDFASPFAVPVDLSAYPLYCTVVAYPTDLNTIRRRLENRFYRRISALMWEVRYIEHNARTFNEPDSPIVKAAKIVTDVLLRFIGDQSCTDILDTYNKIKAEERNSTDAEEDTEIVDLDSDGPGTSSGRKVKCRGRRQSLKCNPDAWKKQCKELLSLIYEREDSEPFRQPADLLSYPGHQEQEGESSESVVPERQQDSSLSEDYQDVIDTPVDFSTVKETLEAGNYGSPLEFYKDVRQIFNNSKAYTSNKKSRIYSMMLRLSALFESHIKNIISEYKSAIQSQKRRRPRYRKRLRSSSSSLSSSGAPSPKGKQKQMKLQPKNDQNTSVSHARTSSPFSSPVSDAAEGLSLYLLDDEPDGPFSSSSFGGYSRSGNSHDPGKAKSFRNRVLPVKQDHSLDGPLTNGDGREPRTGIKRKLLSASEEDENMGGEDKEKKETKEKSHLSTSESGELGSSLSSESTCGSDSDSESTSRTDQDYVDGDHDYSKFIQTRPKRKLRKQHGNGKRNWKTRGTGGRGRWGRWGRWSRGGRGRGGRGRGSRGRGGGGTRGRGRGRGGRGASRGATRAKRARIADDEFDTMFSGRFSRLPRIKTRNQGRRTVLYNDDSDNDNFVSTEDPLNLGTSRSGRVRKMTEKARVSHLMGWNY

ΔTm [1]: 0.6 °C
deltaS [2]: 0.001 kcal/mol/K
ΔTm [3]: 0.1 °C
ΔTm [4]: 1.3 °C
ΔTm [5]: 0.3 °C
TdeltaS (Peregrin (Homo sapiens)): -3.34 kcal/mol
ΔTm [6]: 0.2 °C
ΔTm [7]: 2 °C
inhibition [8]: 11%
ΔTm [9]: -0.3 °C
ΔTm [10]: 0.2 °C
ΔTm [11]: 1.2 °C
SMILES: COc1cc2c(cc1NS(=O)(=O)c1ccc(Br)cc1C)n(C)c(=O)n2C
